“And” between values parts separate entries of the source, which are not always exact repeats. Equal entries are not always repeated.
Legend:
[1] = system: recombinant PGT2 cloned from M. toringoides; assay: Substrate specificity of recombinant PGT2, UDP-glucoside as sugar donor, products determined by LC-MS/MS; type: biochemical; conditions: amount of product formed relative to conversion of phloretin to trilobatin set at 100%
Experimental: The products of each reaction were determined by LC-MS/MS. […] Quercetin-3-O-glucoside was detected as a reaction product using quercetin (FIG. 8A-F) with a lower conversion rate of 9.1% (Table 7).

[2] = Jia et al., 2008; cited from earlier work
[3] = Isosweetness comparison test between trilobatin and sucrose (sensory panel); type: in vivo; conditions: n=5 participants
Experimental: Five participants with high acuity for trilobatin in the triangle test were selected to perform the isosweetness comparison test between trilobatin and sucrose. Each participant was given one trilobatin solution and eight sucrose solutions at different concentrations to taste. Solutions were prepared as described above for the apple leaf teas. The trilobatin solutions were presented at 12.3, 18.5, 27.8 and 41.7 mg per 100 ml, while the sucrose solutions were presented at 296.3, 444.4, 592.6, 666.7, 888.9, 1000, 1333.3 and 2000 mg per 100 ml.

[4] = substrate: O=C(CCc1ccc(O)cc1)c1c(O)cc(O)cc1O; assay: Km/Vmax determination for recombinant PGT2 (glycosyltransferase activity assay, HPLC); type: biochemical, M. toringoides; conditions: other: phloretin 4-500 μM, fixed UDP-glucose 500 μM, pH 9.0, 0.1 M Tris-HCl, 40° C., 10 min

Molecule | Conversion (%) [1] | other results
O=C(CCc1ccc(O)c(O)c1)c1c(O)cc(O)cc1O [3-OH phloretin] | 58.7 ± 2.3% | 
O=C(O)/C=C/c1ccc(O)cc1 [4-coumaric acid] | 0% | 
O=C(O)/C=C/c1ccc(O)c(O)c1 [caffeic acid] | 0% | 
O=C(/C=C/c1ccc(O)c(O)c1)O[C@@H]1C[C@](O)(C(=O)O)C[C@@H](O)[C@H]1O [chlorogenic acid] | 0% | 
O=C1C[C@@H](c2ccc(O)cc2)Oc2cc(O)cc(O)c21 [naringenin] | 0% | 
COc1ccc([C@@H]2CC(=O)c3c(O)cc(O[C@@H]4O[C@H](CO)[C@@H](O)[C@H](O)[C@H]4O[C@@H]4O[C@@H](C)[C@H](O)[C@@H](O)[C@H]4O)cc3O2)cc1O [neohesperidin] | 0% | 
O=C(CCc1ccc(O)cc1)c1c(O)cc(O)cc1O [phloretin, 3-(4-hydroxyphenyl)-1-(2,4,6-trihydroxyphenyl)propan-1-one] | 100.0 ± 6.1% | 
O=c1c(O)c(-c2ccc(O)c(O)c2)oc2cc(O)cc(O)c12 [quercetin] | 9.1% and 9.1 ± 0.1% | 
O=C(CCc1ccc(O)c(O)c1)c1c(O)cc(O[C@@H]2O[C@H](CO)[C@@H](O)[C@H](O)[C@H]2O)cc1O [sieboldin, 3-hydroxyphloretin-4′-O-glucoside] | 0% | 
O=C(CCc1ccc(O)cc1)c1c(O)cc(O[C@@H]2O[C@H](CO)[C@@H](O)[C@H](O)[C@H]2O)cc1O [trilobatin, 1-[2,6-dihydroxy-4-[(2S,3R,4S,5S,6R)-3,4,5-trihydroxy-6-(hydroxymethyl)oxan-2-yl]oxyphenyl]-3-(4-hydroxyphenyl)propan-1-one] | 0% | sweeter than sucrose (reported) [2]: ~100 ×; sweetness detection threshold [2]: 3 to 200 mg/L; Isosweetness (trilobatin vs sucrose) ([3]; R^2=0.98, mean±SE): 35.2+1.66; sweeter than sucrose ([3]; trilobatin purified from leaves of crabapple hybrid ‘Adams’): ~35 fold
PGT2 (Malus toringoides) (protein) MEATAIVLYPSPLIGHLVSMVELGKLILTRHPSLCIHILITTPPYRANDTDSYITSVSAANPSLIFHHLPTISLPPSLASSRNHEILAFELAPLYNPNVHQALVSISHNFSIKAFVMDFFCYVGLPVATELNIPSYFFFTSSANTLASSLYLPTLHNIIDKSLKDLNILLNIPGVPPMPSSDMPQPTLDRNQKVYEHVQGSSKQFPKSAGIIVNTFESLEPRALRAIWDGLCLPENVPTPPVYPIGPLIVSHGGGGRGAECLKWLDSQPSGSVVFLCFGSLGLFSKEQLKEIAIGLENSGHRFLWVVRNPPAQNQIGLDIKESDPELKSLLPDGFLDRTKDRGLVVKSWAPQAAVLNHNSVGGFVSHCGWNSVLESVCAGVPIVAWPLYAEQRFNRVVLVKEIKIAMPMNESEDGFVRAAEVEKRITELMDSEEGASIRKRTKDLQNNAHAALGETGSSGVALTKLLEFWGKTC |  | Km [4]: 18.0 ± 6.7 µM; Vmax [4]: 1.85 ± 0.17 nmol/min
